Test results taken from patent publication US10406217B2, “Antifugetactic agents for the treatment of cancers” (The General Hospital Corporation, priority 2004, dated 2019).

Target: T1, CXCR2 (Homo sapiens, UniProt P25025)
T1 construct: endogenous in cells; host or cells: neutrophils (isolated primary cells)
T1 sequence (P25025 1-360): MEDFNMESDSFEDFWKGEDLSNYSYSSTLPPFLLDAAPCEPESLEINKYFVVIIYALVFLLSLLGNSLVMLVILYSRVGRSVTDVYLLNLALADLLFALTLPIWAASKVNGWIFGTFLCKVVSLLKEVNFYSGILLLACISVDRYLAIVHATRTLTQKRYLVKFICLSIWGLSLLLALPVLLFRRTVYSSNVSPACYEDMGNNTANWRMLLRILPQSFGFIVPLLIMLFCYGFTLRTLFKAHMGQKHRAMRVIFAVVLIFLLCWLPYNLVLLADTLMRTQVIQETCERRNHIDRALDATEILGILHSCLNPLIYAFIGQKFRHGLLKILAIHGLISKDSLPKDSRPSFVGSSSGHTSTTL
Assay: Sequential calcium flux in neutrophils to IL-8 after SB225002 pretreatment
Type: cell-based
Conditions: 1 pM SB225002; IL-8 1.2 μM and 1.2 μM or 600 nM and 1.2 μM; p<0.05
Procedure: Calcium flux in neutrophils in response to IL-8 was measured as previously described (Mahon M. J., et al. 2004 J Biol Chem 279:23550-8). Briefly, isolated cells (˜10^7/ml) were transferred into a balanced salt solution (127 mM NaCl, 3.8 mM KCl, 1.2 mM KH2PO4, 1.2 mM CaCl2, 0.9 mM MgCl2, 5 mM glucose, and 10 mM HEPES, pH 7.4), incubated for 45 min at room temperature with 1.25 μM Fura-2 acetoxymethyl ester (Molecular Probes, Eugene, Oreg.), washed with the balanced salt solution, and unloaded for 15 min at room temperature. […] Calcium flux in response to indicated concentrations of IL-8 (Akahoshi T., et al. 1994 Lymphokine Cytokine Res 13:113-6) was measured by fluorescence of cells excited at 340 and 380 nm using a PTI Deltascan dual-wavelength fluorimeter (Photon Technologies Incorporated, Lawrenceville, N.J.), observed through a Nikon Diaphot 200 microscope (Melville, N.Y.) and Sensys charge-coupled device camera (Photometrics, Ltd., Tucson, Ariz.), and analyzed using the Poenie-Tsien ratio with Imagemaster 2 software (Photon Technologies Incorporated). Signaling responses to IL-8 at designated concentrations were calibrated against maximal calcium flux as determined by treatment with 5 μM ionomycin (Sigma). CXCR2 expression on neutrophils pre- and post-exposure to 120 nM, 1.2 μM and 2.4 μM IL-8 was determined using PE-labelled anti-CXCR2 IgGl antibody (R & D systems). […]

O=C(Nc1ccc([N+](=O)[O-])cc1O)Nc1ccccc1Br [SB225002]
sequential peaks of calcium flux following IL-8 stimulation: significantly reduced
